Drawing on patent publication EP4227307A1 (Genzyme Corporation, priority 2022, dated 2023), this text covers IC50 for 25 molecules.

Where a name gives a salt, the structure may show the parent alone.

For this assay, the target named is T1, human recombinant 6His-Nterm SHP2 full-length (Thr2-Arg593) (Homo sapiens, UniProt Q06124).
T1 construct: 6His-Nterm SHP2 full-length (Thr2-Arg593, R&D system); 6His (N); purchased R&D system
T1 sequence (Q06124 2-593): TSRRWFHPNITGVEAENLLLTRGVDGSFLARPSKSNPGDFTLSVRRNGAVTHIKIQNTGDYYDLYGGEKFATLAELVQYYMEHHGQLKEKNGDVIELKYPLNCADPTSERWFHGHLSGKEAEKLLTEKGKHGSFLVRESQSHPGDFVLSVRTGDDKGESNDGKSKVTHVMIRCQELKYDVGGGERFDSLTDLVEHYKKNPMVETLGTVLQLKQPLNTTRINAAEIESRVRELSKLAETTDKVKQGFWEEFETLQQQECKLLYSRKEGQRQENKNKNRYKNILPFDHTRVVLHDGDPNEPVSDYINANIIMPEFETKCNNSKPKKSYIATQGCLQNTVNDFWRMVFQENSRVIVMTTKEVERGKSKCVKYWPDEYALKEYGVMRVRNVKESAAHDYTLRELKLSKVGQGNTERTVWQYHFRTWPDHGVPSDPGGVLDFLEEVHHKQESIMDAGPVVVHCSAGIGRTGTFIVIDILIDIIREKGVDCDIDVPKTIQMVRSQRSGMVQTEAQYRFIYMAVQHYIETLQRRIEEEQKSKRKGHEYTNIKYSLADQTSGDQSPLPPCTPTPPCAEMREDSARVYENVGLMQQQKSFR
Description: SHP2 Phosphatase Assay (DiFMUP fluorescence). It is filed as biochemical. The conditions noted are these: SHP2 0.2 nM pre-incubated with 100 nM bi-phosphorylated activating peptide; compound 1000-0.05 nM, 30 min pre-incubation; DiFMUP 20 µM, 45 min, room temperature; 10-concentration dose-response. The gist of the method: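 SHP2 (0.2 nM) preactivated ≥10 min with 100 nM bis-phosphorylated peptide, then 30 min with compound (10 concentrations, 1000–0.05 nM) at room temperature, pH 7.2 HEPES buffer with DTT. DiFMUP (20 µM, added solution) reacted 45 min, pervanadate-stopped; fluorescence 350/450 nm. IC50 by 4-parameter logistic fit.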
As to `COc1cc2c(cn1)CC1(CCN(c3nc(C)c(-c4ccnc(C)c4Cl)n4nccc34)CC1)[C@@H]2N` [Compound 137, (5S)-1'-[7-(3-chloro-2-methyl-4-pyridyl)-6-methyl-pyrazolo[1,5-a]pyrazin-4-yl]-3-methoxy-spiro[5,7-dihydrocyclopenta[c]pyridine-6,4'-piperidine]-5-amine], the IC50 is 6 nM.
As to `Cc1nc(N2CCC3(CC2)Cc2ncccc2[C@H]3N)c2ccnn2c1-c1ccc2scnc2c1` [Compound 170, (5S)-1'-[7-(1,3-benzothiazol-5-yl)-6-methyl-pyrazolo[1,5-a]pyrazin-4-yl]spiro[5,7-dihydrocyclopenta[b]pyridine-6,4'-piperidine]-5-amine], the IC50 worked out at 11 nM.
As to `Cc1nc(N2CCC3(CC2)Cc2ncccc2[C@H]3N)c2ccnn2c1-c1cscn1` [Compound 160, (5S)-1'-(6-methyl-7-thiazol-4-yl-pyrazolo[1,5-a]pyrazin-4-yl)spiro[5,7-dihydrocyclopenta[b]pyridine-6,4'-piperidine]-5-amine hydrochloride], the IC50 stood at 63 nM.
The value for `Cc1nc(N2CCC3(CC2)Cc2cc(F)c(F)cc2[C@H]3N)c2ccnn2c1-c1cnn(C)c1C` [Compound 80, (1S)-1'-[7-(1,5-dimethylpyrazol-4-yl)-6-methyl-pyrazolo[1,5-a]pyrazin-4-yl]-5,6-difluoro-spiro [indane-2,4'-piperidine]-1-amine hydrochloride] was 17 nM.
Under `Cc1nc(N2CCC3(CC2)Cc2cccnc2[C@H]3N)c2ccnn2c1-c1cnn(C)c1C` [Compound 130, (7S)-1'-[7-(1,5-dimethylpyrazol-4-yl)-6-methyl-pyrazolo[1,5-a]pyrazin-4-yl]spiro[5,7-dihydrocyclopenta[b]pyridine-6,4'-piperidine]-7-amine] stands 60 nM; under `Cc1nc(N2CCC3(CC2)Cc2ncccc2[C@H]3N)c2ccnn2c1-c1cc(F)ccc1F` [Compound 195, (5S)-1'-[7-(2,5-difluorophenyl)-6-methyl-pyrazolo[1,5-a]pyrazin-4-yl]spiro[5,7-dihydrocyclopenta[b]pyridine-6,4'-piperidine]-5-amine], 4 nM.
Under `Cc1nccc(-c2c(C)nc(N3CCC4(CC3)Nc3ccccc3[C@H]4N)c3ccnn23)c1Cl` [Compound 154, (3R)-1'-[7-(3-chloro-2-methyl-4-pyridyl)-6-methyl-pyrazolo[1,5-a]pyrazin-4-yl]spiro[indoline-2,4'-piperidine]-3-amine hydrochloride] stands 4 nM.
For `Cc1nc(N2CCC3(CC2)Cc2ncccc2[C@H]3N)c2ccnn2c1-c1cccc(F)c1` [Compound 203, (5S)-1'-[7-(3-fluorophenyl)-6-methyl-pyrazolo[1,5-a]pyrazin-4-yl]spiro[5,7-dihydrocyclopenta[b]pyridine-6,4'-piperidine]-5-amine], the IC50 turned out to be 6 nM.
As for `Cc1nc(N2CCC3(CC2)Cc2ncccc2[C@H]3N)c2ccnn2c1-c1ccc2c(c1)CCN2C` [Compound 171, (5S)-1'-[6-methyl-7-(1-methylindolin-5-yl)pyrazolo[1,5-a]pyrazin-4-yl]spiro[5,7-dihydrocyclopenta[b]pyridine-6,4'-piperidine]-5-amine], the IC50 was determined as 20 nM.
The value for `Cc1nc(N2CCC3(CC2)Cc2ncccc2[C@H]3N)c2ccnn2c1-c1cccc(C#N)c1F` [Compound 181, 2-fluoro-3-[6-methyl-4-[(5S)-5-aminospiro[5,7-dihydrocyclopenta[b]pyridine-6,4'-piperidine]-1'-yl]pyrazolo[1,5-a]pyrazin-7-yl]benzonitrile] was 5 nM; that for `Cc1nc(N2CCC3(CC2)Cc2ncccc2[C@H]3N)c2ccnn2c1-c1ccc(CC#N)cc1` [Compound 189, 2-[4-[6-methyl-4-[(5S)-5-aminospiro[5,7-dihydrocyclopenta[b]pyridine-6,4'-piperidine]-1'-yl]pyrazolo[1,5-a]pyrazin-7-yl]phenyl]acetonitrile] was 4 nM; that for `Cc1nc(N2CCC3(CC2)Cc2ncccc2[C@H]3N)c2ccnn2c1-c1sccc1Cl` [Compound 38, (5S)-1'-[7-(3-chloro-2-thienyl)-6-methyl-pyrazolo[1,5-a]pyrazin-4-yl]spiro[5,7-dihydrocyclopenta[b]pyridine-6,4'-piperidine]-5-amine] was 12 nM.
`Cc1nc(N2CCC3(CC2)Cc2ncccc2[C@H]3N)c2ccnn2c1-c1ccnnc1` [Compound 159, (5S)-1'-(6-methyl-7-pyridazin-4-yl-pyrazolo[1,5-a]pyrazin-4-yl)spiro[5,7-dihydrocyclopenta[b]pyridine-6,4'-piperidine]-5-amine hydrochloride]: the half-maximal inhibitory concentration (IC50) came to 649 nM.
Under `Cc1nc(N2CCC3(CC2)Cc2c(F)cccc2[C@H]3N)c2ccnn2c1-c1cnn2ccccc12` [Compound 96, (1S)-4-fluoro-1'-(6-methyl-7-pyrazolo[1,5-a]pyridin-3-yl-pyrazolo[1,5-a]pyrazin-4-yl)spiro[indane-2,4'-piperidine]-1-amine formate] stands 11 nM; under `Cc1nc(N2CCC3(CC2)Cc2ccncc2[C@H]3N)c2ccnn2c1-c1ccccc1` [Compound 138, (7S)-1'-(6-methyl-7-phenyl-pyrazolo[1,5-a]pyrazin-4-yl)spiro[5,7-dihydrocyclopenta[c]pyridine-6,4'-piperidine]-7-amine], 4 nM; under `Cc1nccc(Sc2c(C)nc(N3CCC4(CC3)Cc3ncccc3[C@H]4N)c3ccnn23)c1Cl` [Compound 231, (S)-1'-(7-((3-chloro-2-methylpyridin-4-yl)thio)-6-methylpyrazolo[1,5-a]pyrazin-4-yl)-5,7-dihydrospiro[cyclopenta[b]pyridine-6,4'-piperidin]-5-amine], 8 nM.
The value for `Cc1nccc(-c2c(C)nc(N3CCC4(CC3)[C@H](N)c3ccccc3N4C)c3ccnn23)c1Cl` [Compound 156, (3R)-1'-[7-(3-chloro-2-methyl-4-pyridyl)-6-methyl-pyrazolo[1,5-a]pyrazin-4-yl]-1-methyl-spiro[indoline-2,4'-piperidine]-3-amine] was 35 nM; that for `Cc1cnc2c(c1)[C@@H](N)C1(CCN(c3nc(C)c(-c4ccccc4F)n4nccc34)CC1)C2` [Compound 8, (5S)-1'-[7-(2-fluorophenyl)-6-methyl-pyrazolo[1,5-a]pyrazin-4-yl]-3-methyl-spiro[5,7-dihydrocyclopenta[b]pyridine-6,4'-piperidine] -5-amine] was 6 nM.
Regarding `COc1cccc2c1CC1(CCN(c3nc(C)c(-c4cnn(C)c4C)n4nccc34)CC1)[C@@H]2N` [Compound 111, (1S)-1-[7-(1,5-dimethylpyrazol-4-yl)-6-methyl-pyrazolo[1,5-a]pyrazin-4-yl] -4-methoxy-spiro[indane-2,4'-piperidine]-1-amine], the IC50 was 16 nM.
For the molecule `Cc1nc(N2CCC3(CC2)Cc2ncccc2[C@H]3N)c2ccnn2c1-c1cncc(F)c1` [Compound 179, (5S)-1'-[7-(5-fluoro-3-pyridyl)-6-methyl-pyrazolo[1,5-a]pyrazin-4-yl]spiro[5,7-dihydrocyclopenta[b]pyridine-6,4'-piperidine]-5-amine], the IC50 was determined as 18 nM.
For `COc1ccc2c(n1)[C@@H](N)C1(CCN(c3nc(C)c(-c4cccc(F)c4F)n4nccc34)CC1)C2` [Compound 213, (7S)-1'-[7-(2,3-difluorophenyl)-6-methyl-pyrazolo[1,5-a]pyrazin-4-yl]-2-methoxy-spiro[5,7-dihydrocyclopenta[b]pyridine-6,4'-piperidine]-7-amine], the half-inhibitory concentration (IC50) was found to be 22 nM.
Under `Cc1cc(-c2c(C)nc(N3CCC4(CC3)Cc3ncccc3[C@H]4N)c3ccnn23)cnn1` [Compound 124, (5S)-1'-[6-methyl-7-(6-methylpyridazin-4-yl)pyrazolo[1,5-a]pyrazin-4-yl]spiro[5,7-dihydrocyclopenta[b]pyridine-6,4'-piperidine]-5-amine hydrochloride] stands 391 nM; under `Cc1nc(N2CCC3(CC2)Cc2ncccc2[C@H]3N)c2ccnn2c1-c1ccc(N)nc1` [Compound 177, (5S)-1'-[7-(6-amino-3-pyridyl)-6-methyl-pyrazolo[1,5-a]pyrazin-4-yl]spiro[5,7-dihydrocyclopenta[b]pyridine-6,4'-piperidine]-5-amine], 27 nM; under `COc1c(F)ccc(-c2c(C)nc(N3CCC4(CC3)Cc3ncccc3[C@H]4N)c3ccnn23)c1F` [Compound 5, (5S)-1'-[7-(2,4-difluoro-3-methoxy-phenyl)-6-methyl-pyrazolo [1 ,5-a]pyrazin-4-yl]spiro[5,7-dihydrocyclopenta[b]pyridine-6,4'-piperidine] -5-amine], 3 nM.
Under `Cc1nc(N2CCC3(CC2)Cc2ncccc2[C@H]3N)c2ccnn2c1-c1cccc(F)c1C#N` [Compound 180, 2-fluoro-6-[6-methyl-4-[(5S)-5-aminospiro[5,7-dihydrocyclopenta[b]pyridine-6,4'-piperidine]-1'-yl]pyrazolo[1,5-a]pyrazin-7-yl]benzonitrile] stands 39 nM.
